Test results from US20250177481A1, “SCO-spondin-derived polypeptides for enhancing synaptic transmission” (AXOLTIS PHARMA, priority 2021, published 2025).
Positions of bridges follow the written chain, without caps; N, C: chain ends. No end group written: not given here.

Tests used:
[1] = test system: AMPAr currents in hippocampal CA1 pyramidal neurons; assay: whole-cell patch-clamp, isolated AMPAr EPSCs evoked by Schaffer collateral stimulation (series 2); type: cell-based, C57Bl6/J mice; settings: after 10 min wash-out of NX218 250 μg/mL (T30); mean of 10 neurons
Excerpt: Twelve (C57Bl6/J) male mice 4-5 weeks-old were obtained from Charles River, France and housed in an animal facility. Animal care was compliant with national and local Ethics committee recommendations. Sagittal hippocampal brain slices were obtained using standard brain slicing methods (approximately 6 slices per mouse) (Knobloch et al. 2007). Mice were anesthetized with isoflurane and then decapitated. Brain was dissected out of the cranium and immediately immersed in ice-cold freshly prepared aCSF containing: 124 mM NaCl, 3.75 mM KCl, 2 mM MgSO4, 2 mM CaCl2, 26.5 mM NaHCO3, 1.25 mM NaH2PO4, 10 mM glucose, continuously oxygenated (pH=7.4) for a total duration of 3-4 minutes. Acute slices (350 μm thick) were prepared using a vibratome (VT 1000S; Leica Microsystems, Bannockburn, IL). Sections were incubated in standard aCSF at room temperature for at least 1 h before recordings. […]
The signal was amplified with an Axopatch 200B amplifier (Molecular Devices, Union City, CA), digitized by a Digidata 1550 interface (Molecular Devices) and […]. Recordings were acquired using Clampex (Molecular Devices) and analyzed with Clampfit (Molecular Devices). […]

[2] = test system: pCREB; assay: pCREB protein level in cortical samples of subchronic PCP mice (WES automated protein analysis); type: in vivo, Swiss CD-1 mice; settings: PCP + NX218 5 mg/kg D14; PCP alone 44.17; n=5
Procedure: PCP (or saline for control group) was administered at a dose of 0.2 mg/kg by subcutaneous injections twice daily for 12 days (day 0 to day 11).
Approximately 5 minutes after the test, mice were anaesthetized with 5% isoflurane oxygen mixture. Brains were extracted immediately, then the cortex of each hemisphere were collected. Right and left cortices were transferred into clean pre-labelled microtubes and the exact weight of each sample was recorded. Finally, samples were stored at −80° C. for further analysis.
Brain samples were lysed with a defined buffer lysis consisting of CelLyticMT reagent with 1% of protease and phosphatase inhibitor cocktail (60 μL per well). Lysates were processed at +4° C. and stored at −80° C. at the end of the experiment. For each sample, the quantity of proteins was determined using the micro kit BCA (Pierce). Briefly, lysates were centrifuged and diluted at 1/20 in PBS and mixed, in equal volume, with a micro BCA. After an incubation at 60° C. for 1 hour, the quantity of proteins was measured at 562 nm with a spectrophotometer Nanovue (GE Healthcare) and compared with the standard of Bovine Serum Albumin curve (BSA, Pierce).
Automated protein analysis were performed using the WES™ system (ProteinSimple®): […]
Each protein was evaluated independently. […] 5 samples (biological replicates) per condition were analyzed.

Substance: W-S-G-W-S-S-C-S-R-S-C-G [NX218] (WSGWSSCSRSCG; disulfide 7-11 (inferred))
- Amplitude of evoked isolated AMPA excitatory postsynaptic currents [1]: 153 pA
- pCREB protein level in cortical samples [2]: 68.67 % of control
